Laboratory results taken from article PMC11788964, “Clinical Pharmacology and Approach to Dose Selection of Emestedastat, a Novel Tissue Cortisol Synthesis Inhibitor for the Treatment of Central Nervous System Disease” (Clinical Pharmacology in Drug Development, 2025).

Legend:
AD population = system: AD population; set-up: method as in PMID 24418055; settings: 12‐week Phase 2 trial in AD; cited from earlier work
[1] = system: mice with age‐associated cognitive impairment; murine Tg2576 model of AD; settings: aged mice and murine Tg2576 model of AD; cited from earlier work
brain 11β‐HSD1 = settings: aged mice and murine Tg2576 model of AD; cited from earlier work
[2] = system: healthy older men; patients with type 2 diabetes mellitus; set-up: method as in PMID 15071189; settings: cited from earlier work
[3] = Safety and tolerability in clinical trials; type: in vivo, human
Text: All trials were approved by a local ethics committee/institutional review board, and all participants gave written informed consent. Endocrinology data and a population PK (PPK) analysis are available from the following trials: • · A single‐ascending‐dose (SAD) trial in healthy volunteers (RD 656/25368)[25] • · A multiple‐ascending‐dose (MAD) trial in healthy volunteers, including a small subtrial measuring CSF concentrations (ACW0001)[25] • · A positron emission tomography (PET) trial in cognitively normal, older volunteers and patients with AD (ACW0004)[26] • · Two trials in cognitively normal, older volunteers examining safety and effects on cognition (Trials ACW0003, NCT03830762 and ACW0005; and NCT04983368) • · A PPK analysis from the healthy volunteer and patient trials • · HPA axis endocrinology data from the volunteer and patient trials • · A trial of efficacy and safety in patients with AD (ACW0002; NCT02727699)[27]
Initially, the SAD and MAD trials studied doses up to 35 mg twice daily and assessed PK and HPA PD.

[4] = system: cognitively normal, older participants; test: XanaHES (ACW0003) computerized cognitive test battery (Cogstate); type: in vivo, human; settings: 20 mg daily, over 12 weeks
Protocol: The next trial, XanaHES (ACW0003) was a double‐blind, placebo‐controlled, Phase 1b trial in cognitively normal, older participants (age range, 50‐75 years) at a dose of 20 mg daily for 12 weeks. The population of 42 participants comprised 30 receiving emestedastat and 12 receiving placebo. The objectives were to assess safety, PK, HPA PD, and cognition. The computerized cognitive test battery (CTB; Cogstate) assessed attention, working memory, and episodic memory.
(§1) In both XanaHES and XanaMIA‐DR, cognition was assessed using a computerized CTB (Cogstate). The CTB comprised tests indexing key domains of cognition including processing speed, attention, visual learning, working memory, psychomotor function, and executive function. In XanaHES, least squares mean differences between the emestedastat 20 mg treatment group and the placebo group were estimated and tested at a 2‐sided 0.05 significance level. No adjustments for α were made for multiple comparisons. In XanaMIA‐DR, standardized effect sizes, equivalent to a Z score, were calculated with a threshold for clinically meaningful effect set at 0.9, representing a 1‐sided 80% confidence interval (CI).
(§2) The individual tests from the Cogstate battery were combined into 2 composite scores indexing: • · “Attention Composite” of attention and working memory (Detection Test, Identification Test, One Back Test) • · “Memory Composite” of episodic memory and learning (One Card Learning Test, Continuous Paired Associate Learning Test, and Continuous Paired Associate Learning Test‐Delayed Recall).
(§3) To compute the Attention and Memory Composite scores, each of the component‐test scores were Z transformed, the directionality of scores was reversed so that higher scores indicate better performance, and the component Z scores were averaged.

[5] = system: healthy older participants; test: XanaMIA‐DR (ACW0005) computerized cognitive test battery (Cogstate); type: in vivo, human
Protocol: XanaMIA‐DR (ACW0005) was a double‐blind placebo‐controlled Phase 1b trial in 107 healthy older participants (age range, 50‐80 years) at doses of 5 and 10 mg daily for 6 weeks. The principal objective of XanaMIA‐DR was to assess whether the improvements in cognition observed in XanaHES were also present at the lower doses of 5 and 10 mg daily.
as §1, §2, §3

[6] = Population pharmacokinetic (PPK) analysis of MAD, XanADu and XanaHES trials; type: in vivo, human
Protocol: PPK analysis was performed on data from 3 trials: the MAD trial in volunteers; the XanADu trial in patients with AD; and XanaHES in older, cognitively normal participants. In total, 138 participants (18 healthy volunteers, 90 patients with AD, and 30 healthy older participants) contributed a total of 1087 evaluable plasma concentration observations.
The analyses were performed using NONMEM Version 7.3.0 (ICON plc). PK parameter relationships were sought with the covariates body weight, age, sex, and healthy versus AD. The selected PPK model was a one‐compartment model with first‐order absorption and elimination. It was successfully fitted using Monte Carlo Importance Sampling Expectation Maximization estimation and included separate relative bioavailability terms for the Day 1 PK data from the XanADu and XanaHES trials. The M3 method was used to permit the inclusion of the below‐the‐limit quantification concentrations in the analysis. The model estimated between‐subject variation in all 4 parameters and used a full ω block to estimate the covariance between parameters. The model included a weight effect on the apparent volume of distribution.

peripheral 11β‐HSD1 = system: peripheral 11β‐HSD1; set-up: method as in PMID 28012176; settings: all doses in the MAD trial (10 to 35 mg twice daily); cited from earlier work
[7] = set-up: method as in PMID 28012176; settings: cited from earlier work
[8] = SAD and MAD trials of up to 35 mg twice daily; cited from earlier work
11β‐HSD1 = system: 11β‐HSD1; set-up: method as in PMID 38250767; settings: 5 mg; cited from earlier work
patients with AD = system: patients with AD; set-up: method as in PMID 34679364; settings: 10 mg daily 12 weeks, elevated plasma pTau181; cited from earlier work

In the case of `CC(C)(C(=O)NC1C2CC3CC1CC(C(N)=O)(C3)C2)N1CCN(c2ccc(C(F)(F)F)cn2)CC1` (stereo not drawn) [ABT‐384], the “therapeutic outcome in AD” value (AD population) is given as “therapeutic failure”.

For `O=C(c1csc(-c2cn[nH]c2)c1)N1CCC(F)(c2ccccc2Cl)CC1` [UE2316], the “amyloid‐β in the cortex” value [1] is given as “reduction in amyloid‐β in the cortex”, the memory [1] is given as “improved memory” and the “inhibition of 11β‐HSD1 in the brain” value (brain 11β‐HSD1) is given as “approximately 30%”.

For `CC1(C)[C@@H](OC(=O)CCC(=O)O)CC[C@]2(C)[C@H]3C(=O)C=C4[C@@H]5C[C@@](C)(C(=O)O)CC[C@]5(C)CC[C@@]4(C)[C@]3(C)CC[C@@H]12` [carbenoxolone], the “verbal fluency test (executive function)” value ([2]; 10 healthy older (55‐75 years) men, 4 weeks) is listed as “improved” and the “verbal memory in the Rey Auditory Verbal Learning Test” value ([2]; 12 patients with type 2 diabetes mellitus) is listed as “improved verbal memory”.

For `O=C(c1csc(-c2cn[nH]c2)c1)N1C2CCC1CC(O)(c1ncccn1)C2` (stereo not drawn) [emestedastat, (5‐(1H‐Pyrazol‐4‐yl)thiophen‐3‐yl)(3‐hydroxy‐3‐(pyrimidin‐2‐yl)‐8 azabicyclo[3.2.1]octan‐8‐yl) methanone], the “maximum tolerated dose in humans” value ([3]; all trials) was “has not been established”, the “serious adverse events attributed to drug” value ([3]; any trial) was “no serious adverse events” and the “One Card Learning Test, Continuous Paired Associate Learning Test and Delayed Recall, vs placebo” value [4] was “no difference between groups”. For the same compound, the “least squares mean difference on the One Back Test compared to placebo” value [4] was −0.06 U, the “least squares mean difference on the detection test compared to placebo” value [4] was −0.04 U and the “least squares mean difference on the identification test compared to placebo” value [4] was −0.03 U. For the same compound, the “Cohen's d, One Back Test” value ([4]; vs placebo) was 0.98, the “Cohen's d, detection test” value ([4]; vs placebo) was 0.49 and the “Cohen's d, identification test” value ([4]; vs placebo) was 0.65. For the same compound, the “treatment effect in the tests making up the Memory Composite” value ([5]; 5 and 10 mg daily, 6 weeks) was “no evidence of any treatment effect”, the “improvement on the identification test (visual attention) compared to placebo” value ([5]; 5‐mg treatment group, 6 weeks) was −0.018 U and the “Cohen's d, identification test” value ([5]; 5‐mg treatment group, vs placebo) was 0.32. The “linearity of PK” value ([6]; dose range 10‐70 mg) was “linear”, the “ALAG (absorption lag time), estimate” value ([6]; final PPK model) was 0.900 h and the “ka (absorption rate), estimate” value ([6]; final PPK model) was 1.74 h⁻¹. The “CL/F (apparent clearance), estimate” value ([6]; final PPK model, 138 participants) was 4.76 L/h, the “WT on V/F (covariate), estimate” value ([6]; final PPK model, weight effect on V/F) was 1.00 and the Vd/F ([6]; human, plasma, oral, final PPK model, read-out: V/F (apparent volume of distribution), estimate) was 64.3 L. The half-life ([6]; human, plasma, oral, from kel = CL/V and t1/2 = ln(2)/Kel, read-out: mean elimination half‐life (95% CI)) was 9.36 h, the “inhibition of peripheral 11β‐HSD1 (suppression of urinary tetrahydrocortisol/tetrahydrocortisone ratios)” value (peripheral 11β‐HSD1) was “Near complete inhibition” and the “CSF : free plasma ratio” value ([7]; 4 participants, single time point) was 0.33. The “urinary excretion of unchanged drug” value ([7]; SAD and MAD trials) was < 5%, the maximum tolerated dose [8] was “had not been established” and the tolerability [8] was “well tolerated”. The “occupancy in the cerebellum relative to cortex” value (11β‐HSD1) was “lower (by about half)”, the “Cohen's d, AD COMposite Scores” value (patients with AD) was < 0.2 and the “Cohen's d, ADAS‐Cog14” value (patients with AD) was < 0.2. For the same compound, the “Cohen's d, Clinical Dementia Ratio—Sum of Boxes compared to placebo” value (patients with AD) was 0.41, the “Cohen's d, Mini‐Mental State Examination” value (patients with AD) was < 0.2 and the “Cohen's d, Neuropsychological Test Battery‐Executive domain” value (patients with AD) was 0.26.
